Patent US5770617A, “Terbenzimidazoles useful as antifungal agents” (Rutgers, The State University of New Jersey, priority 1997, dated 1998)

The molecules below were run against T1, human topoisomerase I (Homo sapiens, UniProt P11387) (assay: Topoisomerase I cleavage assay, human enzyme). Details: recombinant human topoisomerase I.
T1 construct: made in house; host or cells: Escherichia coli BL21 (DE3) harboring PET1B
T1 sequence (P11387 1-765): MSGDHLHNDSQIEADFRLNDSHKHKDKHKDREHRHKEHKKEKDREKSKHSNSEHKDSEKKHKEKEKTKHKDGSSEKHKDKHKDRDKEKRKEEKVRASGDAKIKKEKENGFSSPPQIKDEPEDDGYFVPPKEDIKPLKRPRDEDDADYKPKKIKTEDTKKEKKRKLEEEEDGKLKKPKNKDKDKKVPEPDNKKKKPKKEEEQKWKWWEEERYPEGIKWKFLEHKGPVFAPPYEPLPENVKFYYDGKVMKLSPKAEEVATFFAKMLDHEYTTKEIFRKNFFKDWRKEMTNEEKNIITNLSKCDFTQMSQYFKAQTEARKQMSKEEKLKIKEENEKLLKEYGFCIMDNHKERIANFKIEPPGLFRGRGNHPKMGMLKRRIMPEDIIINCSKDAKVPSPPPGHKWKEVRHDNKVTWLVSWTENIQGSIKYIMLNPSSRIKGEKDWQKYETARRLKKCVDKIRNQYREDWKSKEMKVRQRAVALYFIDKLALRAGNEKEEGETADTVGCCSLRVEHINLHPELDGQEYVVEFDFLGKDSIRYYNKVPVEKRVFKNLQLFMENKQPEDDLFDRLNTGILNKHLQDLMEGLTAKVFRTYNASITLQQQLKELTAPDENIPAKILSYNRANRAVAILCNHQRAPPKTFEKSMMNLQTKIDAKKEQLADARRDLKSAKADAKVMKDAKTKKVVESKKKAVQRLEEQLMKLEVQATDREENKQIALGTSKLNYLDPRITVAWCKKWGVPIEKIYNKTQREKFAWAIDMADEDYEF
Assay type: biochemical
Method: Plasmid YEpG was also purified by the alkali lysis method followed by phenol deproteination and CsCl/ethidium isopycnic centrifugation as described by T. Maniatis et al., Molecular Cloning, A Laboratory Manual, Cold Spring Harbor Labs, N.Y. (1982) at pages 149-185. The end-labeling of the plasmid was accomplished as previously described by L. F. Liu et al., J. Biol. Chem., 258, 15365 (1983). The cleavage assays were performed as previously reported by A. Y. Chen et al., Cancer Res., 53, 1332 (1993). Human topoisomerase I was isolated as a recombinant fusion protein using a T7 expression system.
Subsequent steps in purification were the same as described previously for purification of recombinant human DNA topoisomerase I (B. Gatto et al., Cancer Res., 56, 2795 (1996)). Briefly, the supernatant was chromatographed directly onto a hydroxyapatite Bio-gel HTP (BioRad Laboratories, Richmond, Calif.) column. Fractions containing relaxation activity were pooled, diluted and then loaded onto a BioRex70 column (BioRad Laboratories, Richmond, Calif.). The column was developed with a linear gradient from 0.2 to 1M KCl. The peak fractions were pooled and dialyzed overnight at 4° C. against 30 mM potassium phosphate, 50% glycerol (v/v), 0.5 mM EDTA, and 1 mM DTT. Recombinant human topoisomerase I was purified from Escherichia coli BL21 (DE3) harboring PET1B as described previously (Gatto et al., Cancer Res., 56, 2795 (1996)).
DNA topoisomerase I cleavage assays were performed as described by Y.-H. Hsiang et al., J. Biol. Chem., 260, 14873 (1985). YEpG DNA was linearized with BamHI and then 3 '-end-labeled with Klenow polymerase and α[-^32 P]dCTP. Following phenol extraction and ethanol precipitation, the labeled DNA was resuspended in 10 mM Tris, pH 8.0, and 1 mM EDTA. The DNA cleavage assay was done in a reaction mixture (20 μl) containing 40 mM Tris-HCl, pH 7.8, 100 mM KCl, 10 mM MgCl2, 0.5 mM dithiothreitol, 0.5 mM EDTA, 30 μg/ml bovine serum albumin, 20 ng of labeled YEpG DNA, and […] of Aspergillus or human topoisomerase I diluted to various extents. Following incubation at 23° C. for 15 minutes, the reactions were terminated by the addition of SDS (final concentration 1%) and proteinase K (final concentration 200 μg/ml). Proteinase K treatment continued at 37° C. for another 1 hour. The terminated reactions were either alkali-denatured and then loaded (alkaline loading) or loaded directedly in neutral loading buffer (neutral loading) onto a 1% agarose gel in neutral TPE electrophoresis solution. Gel drying and autoradiography were performed as described by Hsiang et al., cited above.

SMILES	sensitivity of human topoisomerase I to poisoning / DNA cleavage with human topoisomerase I, in words
c1ccc(-c2ccc3[nH]c(-c4ccc5[nH]c(-c6ccc7[nH]cnc7c6)nc5c4)nc3c2)cc1 [Compound 13, 5-Phenyl-2-[2'(benzimidazol-5"-yl)benzimidazol-5'-yl]benzimidazole]	sensitive
N#Cc1ccc2[nH]c(-c3ccc4[nH]c(-c5ccc6[nH]cnc6c5)nc4c3)nc2c1 [Compound 11, 5-Cyano-2-[2'-(benzimidazol-5"-yl)benzimidazol-5'-yl]benzimidazole]	sensitive
CCOc1ccc(-c2nc3cc(-c4nc5cc(N6CCN(C)CC6)ccc5[nH]4)ccc3[nH]2)cc1 [Hoechst 33342, 2'-(4-ethoxyphenyl)-5-(4-methyl-1-piperazinyl)-2,5'-bi-1H-benzimidazole]	sensitive
CC[C@@]1(O)C(=O)OCc2c1cc1n(c2=O)Cc2cc3ccccc3nc2-1 [camptothecin]	sensitive
